Experimental data reported in US20140315975A1, “APOPTOSIS-INDUCING AGENT” (NITTO DENKO CORPORATION, priority 2011, published 2014).

Key:
Format in all cases: cell-based
M7609 cells [1] = experiment: Autophagy induction by LC3 immunofluorescence staining; settings: 1 to 4 days after transfection (FIG. 10)
Description: Induction of autophagy by GST-π knockdown was analyzed by immunofluorescence staining with LC3, which is an autophagy-specific marker protein. GST-π knockdown cells obtained by the procedure of Example 1 (2) were plated on a cover slip placed in a 35 mm plastic tissue culture dish so as to give 1×10^5 cells/2 mL. After the medium was aspirated, 4% paraformaldehyde in PBS was added, and incubation was carried out at room temperature for 10 min., thus fixing the cells. Permeabilization of the cells was carried out using 0.5% Triton X-100 in PBS on ice for 5 min. After washing with cold PBS for 10 min., a reaction with anti-LC3B antibody (Invitrogen) diluted with 1% BSA containing PBS was carried out within a humidity chamber at 37° C. for 1 hour. A secondary antibody reaction was carried out using Alexa Fluor488-labeled rabbit antibody (Invitrogen) at 37° C. for 1 hour. Mounting on a slide glass was carried out using Prolong Gold antifade reagent with DAPI, and incubation was carried out at 4° C. for 16 hours. Washing after the antibody reaction was carried out three times using PBS at 37° C. for 5 min. Autophagy-positive cells at the time of examination with a fluorescence microscope were defined as cells having a spot-like LC3 signal present in the cytoplasm.

GST-π = experiment: Western blot analysis of GST-π knockdown; settings: M7609 cells
Description: On the day before transfection, M7609 cells were plated on a 100 mm plastic tissue culture dish using 10% FBS-containing RPMI-1640 medium containing no antibiotic so as to give 1×10^6 cells/10 mL. 600 pmol of GST-π siRNA (SEQ ID No: 1: […], siRNA ID#2385, Ambion) was added to 1 mL of Opti-MEM I Reduced Serum Medium (GIBCO) and mixed gently. Subsequently, 35 μL of Lipofectamine RNAiMAX (Invitrogen) was diluted in 1 mL of Opti-MEM I Reduced Serum Medium and mixed gently. The diluted GST-π siRNA and the diluted Lipofectamine RNAiMAX were combined and gently mixed, and then incubated at room temperature for 10 min. During this time, the medium was replaced with 10 mL of Opti-MEM I Reduced Serum Medium. After the 10 min. incubation, the complex between GST-π siRNA and Lipofectamine RNAiMAX was added to the cells and incubated at 37° C. under an atmosphere containing 5% CO2. After 5 hours incubation, it was replaced with 10 mL of 10% FBS-containing RPMI-1640 medium containing no antibiotic. […] On the 1st, 2nd, 3rd, and 4th days after transfection with GST-π siRNA, the number of cells was counted, and knockdown of GST-π was examined. Knockdown of GST-π was analyzed by a western blot method as described below.
Western blot analysis of GST-π knockdown was carried out using cells harvested at above-mentioned each point of time after transfection with GST-π siRNA. […] The cell extract thus obtained was subjected to quantitative protein analysis using a Micro BCA Protein Assay Kit (Thermo SCIENTIFIC) (GST-π siRNA transfectant: 4.35 μg/μL, Scramble siRNA transfectant: 4.56 μg/μL). […] A reaction with a chemiluminescent substrate was then carried out at room temperature for 1 min., and then this chemiluminescence was detected using an X-ray film. Washing between operations was carried out three times by shaking for 5 min using PBS-T. Furthermore, after transfection with siRNA, plating on a 60 mm plastic tissue culture dish was carried out to give 1.0×10^5 cells/5 mL, and the total cell count in the dish was measured using a hemocytometer up to the 4th day.

M7609 cells [2] = experiment: Autophagy induction by electron microscope examination; settings: 2 days after transfection, electron microscope (FIG. 7)
Description: On the 1st day after siRNA transfection in Example 1 (2), the cells were plated on an 8-well culture slide for tissue culture so as to give 0.4×10^5 cells/0.5 mL. Fixation was carried out using 2.5% glutaraldehyde in 0.1 M cacodylic acid buffer (pH 7.4) for hour, and after rinsing with 0.1 M cacodylic acid buffer post-fixation was carried out using 1% OsO4 and 1.5% potassium ferrocyanide for 2 hours. After dehydration was carried out three times with ethanol for 10 min., embedding in an epoxy resin (TAAB Laboratories Equipment) was carried out. An ultrathin section was prepared using a diamond knife, electron staining was carried out using uranyl acetate and lead citrate, and the section was examined using an electron microscope (Hitachi Transmission Electron Microscope H-7500, Hitachi High-Technologies Corporation).

[3] = test system: RAS/Raf/MAPK signal cascade; experiment: Western blot of protein involved in RAS/Raf/MAPK signal cascade; settings: M7609 cells
Description: A western blot analysis for the main protein involved in the RAS/Raf/MAPK signal cascade was carried out in the same way as for (3) above using cells harvested on the 2nd day after transfection with GST-π siRNA. As antibodies, in addition to anti-GST-π antibody, anti-p-Raf-1 (Ser338) antibody (MILLIPORE), anti-Raf-1 antibody (Santa Cruz), anti-p-MEK1/2 (Ser217/221) antibody (Cell Signaling), anti-MEK1/2 antibody (Cell Signaling), anti-p-ERK1/2 (Thr202/Tyr204) antibody (Cell Signaling), anti-ERK antibody (Cell Signaling), and anti-GAPDH antibody (Abcam) were used.

GST-π siRNA: GST-π siRNA (SEQ ID No: 1: GGGAGGCAAGACCUUCAUUTT, siRNA ID#2385, Ambion) (chemistry not given here)
proportion of autophagy-positive cells (spot-like LC3 signal per 500 cells) (M7609 cells [1]): increased rapidly after treatment, peaked on 2nd day, and then decreased | expression of GST-π (GST-π; 4 days after transfection (FIG. 1b)): still stably suppressed | expression of GST-π (GST-π; siRNA transfection, western blot (FIG. 1a)): suppressed | autophagosome formation (M7609 cells [2]): autophagosome was formed | expression level of Raf protein ([3]; 2nd day after transfection (FIG. 2)): decreases | phosphorylation of proteins involved in the RAS/Raf/MAPK signal cascade ([3]; 2nd day after transfection, compared with Scramble siRNA (FIG. 2)): decreased
